Assay [1] deals with T1, RORγ (Homo sapiens, UniProt P51449).
T1 construct: gene RORC; also full-length RORγ transcript variant 1
T1 sequence (P51449 265-507 limits assumed): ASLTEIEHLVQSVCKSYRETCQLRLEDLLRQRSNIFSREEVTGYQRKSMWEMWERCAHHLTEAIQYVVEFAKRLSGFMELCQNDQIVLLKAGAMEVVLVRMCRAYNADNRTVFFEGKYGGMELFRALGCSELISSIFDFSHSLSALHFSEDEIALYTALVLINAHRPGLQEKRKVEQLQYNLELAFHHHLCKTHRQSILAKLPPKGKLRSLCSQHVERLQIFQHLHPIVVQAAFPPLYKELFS
Nature of the assay: RORγ-Gal4 luciferase reporter assay in HEK293 cells (inverse agonism); full-length RORγ-RORE assay IC50 […]. Type of assay: cell-based. (In general: In a reporter assay the amount or activity of a reporter protein is the signal.)

The target in assay [2] is T2, RORα (Homo sapiens, UniProt P35398).
T2 construct: gene RORA; RORα-Gal4
T2 sequence (P35398 1-523): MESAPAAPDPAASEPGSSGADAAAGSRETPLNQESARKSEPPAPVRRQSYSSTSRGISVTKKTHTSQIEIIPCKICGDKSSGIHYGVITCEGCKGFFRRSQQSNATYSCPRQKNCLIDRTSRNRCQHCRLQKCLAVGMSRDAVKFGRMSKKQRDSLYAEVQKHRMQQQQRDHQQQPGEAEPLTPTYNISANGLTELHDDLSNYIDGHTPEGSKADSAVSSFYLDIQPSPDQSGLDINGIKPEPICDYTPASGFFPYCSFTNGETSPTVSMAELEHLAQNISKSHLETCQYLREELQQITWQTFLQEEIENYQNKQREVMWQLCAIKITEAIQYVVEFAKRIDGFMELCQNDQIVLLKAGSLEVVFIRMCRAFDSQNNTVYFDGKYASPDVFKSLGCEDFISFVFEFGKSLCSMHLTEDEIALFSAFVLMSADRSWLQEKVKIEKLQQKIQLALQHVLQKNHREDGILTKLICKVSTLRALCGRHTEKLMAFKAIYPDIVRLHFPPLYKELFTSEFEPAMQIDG
The assay can be described thus: RORα-Gal4 luciferase reporter assay in HEK293 cells (inverse agonism). Type of assay: cell-based.

The IC50 is the point on the concentration scale where inhibition reaches its midpoint.

For the compound `C[C@@H]1CC[C@@]2(OC1)O[C@H]1C[C@H]3[C@@H]4CC=C5C[C@@H](O)CC[C@]5(C)[C@H]4CC[C@]3(C)[C@H]1[C@@H]2C` [diosgenin], the IC50 in assay [1] is 1.73 µM; in assay [2], 2.17 µM.

These data come from article PMC9495423, “Identification of the Natural Steroid Sapogenin Diosgenin as a Direct Dual-Specific RORα/γ Inverse Agonist” (Biomedicines, 2022).
